The values below come from US20240409585A1, “MACROCYCLIC IMMUNOMODULATORS” (priority 2021, published 2024).

Bridge positions count the residues as written; N and C are the ends. Square brackets hold non-standard residues; d marks the D form. Peptide text beside a SMILES is read from it. * marks the point of attachment. ξ: configuration not given here. Phe(3-CF3) = N[C@@H](Cc1cccc(C(F)(F)F)c1)C(=O)O; Phe(4-CONH2) = NC(=O)c1ccc(C[C@H](N)C(=O)O)cc1; Phe(4-COOH) = N[C@@H](Cc1ccc(C(=O)O)cc1)C(=O)O; Bip = N[C@@H](Cc1ccc(-c2ccccc2)cc1)C(=O)O; Phe(3-Me) = Cc1cccc(C[C@H](N)C(=O)O)c1; Val(3-OH) = CC(C)(O)[C@H](N)C(=O)O; 4Pal = N[C@@H](Cc1ccncc1)C(=O)O; Cha = N[C@@H](CC1CCCCC1)C(=O)O; Cit = NC(=O)NCCC[C@H](N)C(=O)O; Ile(3ξ) = CCC(C)[C@H](N)C(=O)O; Thr(3ξ) = CC(O)[C@H](N)C(=O)O; Pen = CC(C)(S)[C@H](N)C(=O)O; Carboxymethyl = O=C(O)C*; NMeA = CN[C@@H](C)C(=O)O; Orn = NCCC[C@H](N)C(=O)O; Dab = NCC[C@H](N)C(=O)O; Nva = CCC[C@H](N)C(=O)O; Dap = NC[C@H](N)C(=O)O

The target of this experiment is T1, PE-labeled human PD-L1-Ig binding to Jurkat cell line over-expressing human PD-1 (Jurkat-PD-1) (Homo sapiens, UniProt Q15116).
T1 construct: expressed in transfected cells; host or cells: Jurkat
T1 sequence (Q15116 25-288): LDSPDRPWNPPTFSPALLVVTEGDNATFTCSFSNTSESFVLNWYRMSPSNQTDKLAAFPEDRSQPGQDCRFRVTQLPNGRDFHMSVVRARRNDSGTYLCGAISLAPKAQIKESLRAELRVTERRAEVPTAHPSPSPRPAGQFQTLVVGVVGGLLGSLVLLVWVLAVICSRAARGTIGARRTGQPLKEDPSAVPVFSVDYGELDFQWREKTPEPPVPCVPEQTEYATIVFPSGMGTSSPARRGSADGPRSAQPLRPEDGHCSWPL
The experiment is described as follows: Jurkat-PD-1 Cell Binding High-Content Screening Assay (CBA): Method 1. To be noted: Jurkat-hPD-1 cells, PE-labeled PD-L1-Ig 20 nM final; read-out: Jurkat HPDL1 PD1 IC50 (uM) (Method 1).
Consider `CCC(C)[C@@H]1NC(=O)[C@H](Cc2ccc(-c3ccccc3)cc2)NC(=O)[C@H](C(C)C)NC(=O)[C@H](Cc2c[nH]c3ccccc23)NC(=O)[C@H](CC(=O)O)NC(=O)[C@H](Cc2ccc(O)cc2)NC(=O)[C@H](CC(N)=O)NC(=O)CSC[C@@H](C(=O)N[C@@H](CC(N)=O)C(N)=O)NC(=O)[C@H](C(C)O)NC(=O)[C@H](C(C)C)NC(=O)[C@H](CC(C)C)NC(=O)[C@H](CCN)NC(=O)[C@@H](CC(C)C)NC(=O)[C@H](C)N(C)C1=O` (stereo partly drawn) [Compound 2069] ({CH2CO}-NYDWV[Bip][Ile(3ξ)][NMeA][dL][Dab]LV[Thr(3ξ)]CN-NH2; thioether N-14), for which the IC50 is 0.1 µM.

For the molecule `Cc1cccc(C[C@@H]2NC(=O)[C@H](CC(=O)O)NC(=O)[C@H](Cc3ccc(OCC(=O)O)cc3)NC(=O)[C@H](Cc3ccncc3)NC(=O)CSC[C@@H](C(=O)N[C@@H](CCN)C(N)=O)NC(=O)[C@H](CC(N)=O)NC(=O)[C@H](C(C)(C)O)NC(=O)[C@H](CC3CCCCC3)NC(=O)[C@H](CCN)NC(=O)[C@@H](CC(C)C)NC(=O)[C@H](C)N(C)C(=O)[C@H](Cc3ccc(OCC(=O)O)cc3)NC(=O)[C@H](Cc3ccc(-c4ccccc4)cc3)NC(=O)[C@H](Cc3ccc(OCC(=O)O)cc3)NC2=O)c1` [Compound 2191] ({CH2CO}-[4Pal]Y(Carboxymethyl)D[Phe(3-Me)]Y(Carboxymethyl)[Bip]Y(Carboxymethyl)[NMeA][dL][Dab][Cha][Val(3-OH)]NC[Dab]-NH2; thioether N-14), the half-inhibitory concentration (IC50) came to 0.03 µM.

In the case of `CC(C)C[C@H]1NC(=O)[C@H](C)N(C)C(=O)[C@H](CCCN)NC(=O)[C@H](Cc2ccc(-c3ccccc3)cc2)NC(=O)[C@H](C(C)C)NC(=O)[C@H](Cc2c[nH]c3ccccc23)NC(=O)[C@H](CC(=O)O)NC(=O)[C@H](Cc2ccc(O)cc2)NC(=O)[C@H](CC(N)=O)NC(=O)CSC[C@@H](C(=O)N[C@@H](C)C(N)=O)NC(=O)[C@H]([C@@H](C)O)NC(=O)[C@H](C(C)C)NC(=O)[C@H](CC2CCCCC2)NC(=O)[C@H](CCCNC(=N)N)NC1=O` [Compound 1276] ({CH2CO}-NYDWV[Bip][Orn][NMeA][dL]R[Cha]VTCA-NH2; thioether N-14), the IC50 was 0.03 µM.

For `CC(C)C[C@@H]1NC(=O)[C@H](CCN)NC(=O)[C@@H](CC(C)C)NC(=O)[C@H](C)N(C)C(=O)[C@H](Cc2cnc[nH]2)NC(=O)[C@H](Cc2ccc(-c3ccccc3)cc2)NC(=O)[C@H](C(C)C)NC(=O)[C@H](Cc2c[nH]c3ccccc23)NC(=O)[C@H](CC(=O)O)NC(=O)[C@H](Cc2ccc(O)cc2)NC(=O)[C@H](CN)NC(=O)CSC[C@@H](C(=O)N[C@@H](C)C(N)=O)NC(=O)[C@H]([C@@H](C)O)NC(=O)[C@H](C(C)C)NC1=O` [Compound 1424] ({CH2CO}-[Dap]YDWV[Bip]H[NMeA][dL][Dab]LVTCA-NH2; thioether N-14), the IC50 worked out at 0.05 µM.

In the case of `CC(C)C[C@@H]1NC(=O)[C@H](Cc2c[nH]c3ccccc23)NC(=O)[C@H](CC(=O)O)NC(=O)[C@H](Cc2ccc(C(=O)O)cc2)NC(=O)[C@H](Cc2ccc(OCC(=O)O)cc2)NC(=O)CSC[C@@H](C(=O)N[C@@H](CC(N)=O)C(N)=O)NC(=O)[C@H](CO)NC(=O)[C@H](C(C)(C)O)NC(=O)[C@H](CC2CCCCC2)NC(=O)[C@H](CCN)NC(=O)[C@@H](CC(C)C)NC(=O)[C@H](C)N(C)C(=O)[C@H](C(C)C)NC(=O)[C@H](Cc2ccc(-c3ccccc3)cc2)NC1=O` [Compound 1915] ({CH2CO}-Y(Carboxymethyl)[Phe(4-COOH)]DWL[Bip]V[NMeA][dL][Dab][Cha][Val(3-OH)]SCN-NH2; thioether N-14), the IC50 turned out to be 0.01 µM.

For `Cc1cccc(C[C@@H]2NC(=O)[C@H](CC(=O)O)NC(=O)[C@H](Cc3ccc(O)cc3)NC(=O)[C@H](CC(N)=O)NC(=O)CSC[C@@H](C(=O)N[C@@H](C)C(N)=O)NC(=O)[C@H]([C@@H](C)O)NC(=O)[C@H](C(C)C)NC(=O)[C@H](CC(C)C)NC(=O)[C@H](CCN)NC(=O)[C@@H](CC(C)C)NC(=O)[C@H](C)N(C)C(=O)[C@H](CCCNC(N)=O)NC(=O)[C@H](Cc3ccc(-c4ccccc4)cc3)NC(=O)[C@H](C(C)C)NC2=O)c1` [Compound 1230] ({CH2CO}-NYD[Phe(3-Me)]V[Bip][Cit][NMeA][dL][Dab]LVTCA-NH2; thioether N-14), the IC50 amounted to 0.01 µM.

`CC(C)C[C@@H]1NC(=O)[C@H](Cc2c[nH]c3ccccc23)NC(=O)[C@H](CC(=O)O)NC(=O)[C@H](Cc2ccc(O)cc2)NC(=O)[C@H](Cc2ccccc2)NC(=O)CSC[C@@H](C(=O)N[C@@H](C)C(N)=O)NC(=O)[C@H]([C@@H](C)O)NC(=O)[C@H](CCCCN)NC(=O)[C@H](CC(C)C)NC(=O)[C@H](CC(N)=O)NC(=O)[C@@H](C)NC(=O)[C@H](C)N(C)C(=O)[C@H](C(C)C)NC(=O)[C@H](Cc2ccc(-c3ccccc3)cc2)NC1=O` [Compound 1766] ({CH2CO}-FYDWL[Bip]V[NMeA][dA]NLKTCA-NH2; thioether N-14): the IC50 came to 0.04 µM.

`Cc1cccc(C[C@@H]2NC(=O)[C@H](CC(=O)O)NC(=O)[C@H](Cc3ccc(OCC(=O)O)cc3)NC(=O)[C@H](Cc3ccc(OCC(=O)O)cc3)NC(=O)CSC(C)(C)[C@@H](C(=O)N[C@H](C)C(N)=O)NC(=O)[C@H](CCCNC(N)=O)NC(=O)[C@H](C(C)C)NC(=O)[C@H](CC3CCCCC3)NC(=O)[C@H](CCN)NC(=O)[C@@H](CC(C)C)NC(=O)[C@H](C)N(C)C(=O)[C@H](Cc3cnc[nH]3)NC(=O)[C@H](Cc3ccc(-c4ccccc4)cc3)NC(=O)[C@H](Cc3ccc(C(N)=O)cc3)NC2=O)c1` [Compound 2126] ({CH2CO}-Y(Carboxymethyl)Y(Carboxymethyl)D[Phe(3-Me)][Phe(4-CONH2)][Bip]H[NMeA][dL][Dab][Cha]V[Cit][Pen][dA]-NH2; thioether N-14): the IC50 was 0.66 µM.

For the molecule `CC(C)C[C@@H]1NC(=O)[C@H](CCCNC(=N)N)NC(=O)[C@@H](CC(C)C)NC(=O)[C@H](C)N(C)C(=O)[C@H](CCCNC(=N)N)NC(=O)[C@H](Cc2ccc(-c3ccccc3)cc2)NC(=O)[C@H](C(C)C)NC(=O)[C@H](Cc2cccc(C(F)(F)F)c2)NC(=O)[C@H](CC(=O)O)NC(=O)[C@H](Cc2ccc(O)cc2)NC(=O)[C@H](CC(N)=O)NC(=O)CSC[C@@H](C(=O)N[C@@H](C)C(N)=O)NC(=O)[C@H]([C@@H](C)O)NC(=O)[C@H](C(C)C)NC1=O` [Compound 1198] ({CH2CO}-NYD[Phe(3-CF3)]V[Bip]R[NMeA][dL]RLVTCA-NH2; thioether N-14), the IC50 turned out to be 0.06 µM.

With `CC(C)C[C@@H]1NC(=O)[C@H](CCN)NC(=O)[C@@H](CC(C)C)NC(=O)[C@H](C)N(C)C(=O)[C@H](CCCNC(N)=O)NC(=O)[C@H](Cc2ccc(-c3ccccc3)cc2)NC(=O)[C@H](C(C)C)NC(=O)[C@H](Cc2c[nH]c3ccccc23)NC(=O)[C@H](CC(=O)O)NC(=O)[C@H](Cc2ccc(C(=O)O)cc2)NC(=O)[C@H](Cc2ccncc2)NC(=O)CSC[C@@H](C(=O)N[C@@H](C)C(N)=O)NC(=O)[C@H]([C@@H](C)O)NC(=O)[C@H](C(C)C)NC1=O` [Compound 1328] ({CH2CO}-[4Pal][Phe(4-COOH)]DWV[Bip][Cit][NMeA][dL][Dab]LVTCA-NH2; thioether N-14), the IC50 amounted to 0.01 µM.

Regarding `CC(C)C[C@@H]1NC(=O)[C@H](Cc2c[nH]c3ccccc23)NC(=O)[C@H](CC(=O)O)NC(=O)[C@H](Cc2ccc(OCC(=O)O)cc2)NC(=O)[C@H](Cc2ccccc2)NC(=O)CSC[C@@H](C(=O)N[C@@H](CC(N)=O)C(N)=O)NC(=O)[C@H](CO)NC(=O)[C@H](C(C)C)NC(=O)[C@H](CC(C)C)NC(=O)[C@H](CCN)NC(=O)[C@@H](CC(C)C)NC(=O)[C@H](C)N(C)C(=O)[C@H](Cc2cnc[nH]2)NC(=O)[C@H](Cc2ccc(-c3ccccc3)cc2)NC1=O` [Compound 2096] ({CH2CO}-FY(Carboxymethyl)DWL[Bip]H[NMeA][dL][Dab]LVSCN-NH2; thioether N-14), the IC50 came out at 0.04 µM.

Turning to `Cc1cccc(C[C@@H]2NC(=O)[C@H](CC(=O)O)NC(=O)[C@H](Cc3ccc(C(=O)O)cc3)NC(=O)[C@H](Cc3ccncc3)NC(=O)CSC[C@@H](C(=O)N[C@@H](CO)C(N)=O)NC(=O)[C@H](CCC(=O)O)NC(=O)[C@H](C(C)(C)O)NC(=O)[C@H](CC3CCCCC3)NC(=O)[C@H](CCN)NC(=O)[C@@H](CC(C)C)NC(=O)[C@H](C)N(C)C(=O)[C@H](Cc3ccc(OCC(=O)O)cc3)NC(=O)[C@H](Cc3ccc(-c4ccccc4)cc3)NC(=O)[C@H](Cc3ccc(C(=O)O)cc3)NC2=O)c1` [Compound 2195] ({CH2CO}-[4Pal][Phe(4-COOH)]D[Phe(3-Me)][Phe(4-COOH)][Bip]Y(Carboxymethyl)[NMeA][dL][Dab][Cha][Val(3-OH)]ECS-NH2; thioether N-14), the IC50 amounted to 0.08 µM.

As to `CC(C)C[C@@H]1NC(=O)[C@H](CCN)NC(=O)[C@@H](CC(C)C)NC(=O)[C@H](C)N(C)C(=O)[C@H](CCCNC(N)=O)NC(=O)[C@H](Cc2ccc(-c3ccccc3)cc2)NC(=O)[C@H](C(C)C)NC(=O)[C@H](Cc2c[nH]c3ccccc23)NC(=O)[C@H](CC(=O)O)NC(=O)[C@H](Cc2ccc(O)cc2)NC(=O)[C@H](CCN)NC(=O)CSC[C@@H](C(=O)N[C@@H](C)C(N)=O)NC(=O)[C@H]([C@@H](C)O)NC(=O)[C@H](C(C)C)NC1=O` [Compound 1346] ({CH2CO}-[Dab]YDWV[Bip][Cit][NMeA][dL][Dab]LVTCA-NH2; thioether N-14), the 50% inhibitory concentration (IC50) came to 0.07 µM.

As to `CCC[C@@H]1NC(=O)[C@H](CC(C)C)NC(=O)[C@H](CCCNC(=N)N)NC(=O)[C@@H](CC(C)C)NC(=O)[C@H](C)N(C)C(=O)[C@H](CCCNC(=N)N)NC(=O)[C@H](Cc2ccc(-c3ccccc3)cc2)NC(=O)[C@H](C(C)C)NC(=O)[C@H](Cc2c[nH]c3ccccc23)NC(=O)[C@H](CC(=O)O)NC(=O)[C@H](Cc2ccc(O)cc2)NC(=O)[C@H](Cc2ccccc2)NC(=O)CSC[C@@H](C(=O)N[C@@H](C)C(N)=O)NC(=O)[C@H]([C@@H](C)O)NC1=O` [Compound 1112] ({CH2CO}-FYDWV[Bip]R[NMeA][dL]RL[Nva]TCA-NH2; thioether N-14), the IC50 turned out to be 0.1 µM.
